Consider 16 molecules from patent US9365551B2, “2-(benzyloxy) benzamides as LRRK2 kinase inhibitors” (Glaxo Group Limited, priority 2010, dated 2016).

Where a name gives a salt, the structure may show the parent alone. Some results are limits rather than exact numbers.

Assay [1] addresses T1, 6His-Tev-LRRK2 (1326-2527) (Homo sapiens, UniProt Q5S007).
T1 construct: A LRRK2 cDNA encoding residues 1326-2527 was received from Dundee University; made in house; host or cells: Spodoptera frugiperda (Sf9) insect cells, baculovirus (pFB-HTb)
T1 sequence (Q5S007 1326-2527): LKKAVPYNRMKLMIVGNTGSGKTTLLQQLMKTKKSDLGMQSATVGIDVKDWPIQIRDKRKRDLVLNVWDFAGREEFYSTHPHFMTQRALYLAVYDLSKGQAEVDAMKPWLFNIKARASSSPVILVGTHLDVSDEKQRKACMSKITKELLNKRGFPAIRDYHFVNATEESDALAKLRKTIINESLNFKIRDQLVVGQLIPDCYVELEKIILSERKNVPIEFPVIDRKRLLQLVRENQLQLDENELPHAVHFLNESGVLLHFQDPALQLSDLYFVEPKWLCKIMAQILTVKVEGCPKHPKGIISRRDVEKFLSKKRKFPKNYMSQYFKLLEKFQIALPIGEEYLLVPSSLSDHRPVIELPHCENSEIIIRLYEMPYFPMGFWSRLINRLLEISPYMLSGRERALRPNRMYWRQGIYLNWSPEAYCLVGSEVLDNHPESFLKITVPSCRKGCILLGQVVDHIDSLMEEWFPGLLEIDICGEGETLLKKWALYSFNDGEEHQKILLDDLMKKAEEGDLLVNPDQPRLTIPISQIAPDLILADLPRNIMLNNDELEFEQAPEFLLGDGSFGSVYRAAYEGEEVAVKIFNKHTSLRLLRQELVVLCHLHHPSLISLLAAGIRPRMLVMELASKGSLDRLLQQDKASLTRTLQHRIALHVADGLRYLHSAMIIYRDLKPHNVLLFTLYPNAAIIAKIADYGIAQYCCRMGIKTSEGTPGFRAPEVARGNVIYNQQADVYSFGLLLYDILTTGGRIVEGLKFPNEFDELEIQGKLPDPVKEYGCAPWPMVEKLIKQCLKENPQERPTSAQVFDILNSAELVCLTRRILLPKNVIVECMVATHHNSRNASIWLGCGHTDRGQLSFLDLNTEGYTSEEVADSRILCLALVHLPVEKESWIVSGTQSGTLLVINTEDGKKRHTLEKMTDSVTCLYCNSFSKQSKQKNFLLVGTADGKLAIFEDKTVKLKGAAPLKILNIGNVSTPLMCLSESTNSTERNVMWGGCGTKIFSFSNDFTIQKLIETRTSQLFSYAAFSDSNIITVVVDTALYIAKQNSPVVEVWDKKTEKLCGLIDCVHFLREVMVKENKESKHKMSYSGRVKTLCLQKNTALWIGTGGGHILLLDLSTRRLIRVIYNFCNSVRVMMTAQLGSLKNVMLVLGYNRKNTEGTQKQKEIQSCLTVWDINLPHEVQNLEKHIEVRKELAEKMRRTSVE
Nature of the assay: LRRK2 AlphaScreen desensitised protein substrate assay. The format is biochemical. The conditions noted are these: mean pIC50 of multiple test results. As to the method:
(§1) Compounds of formula (I) may be tested for in vitro kinase activity in accordance with the following assays, using the non natural, in vitro, substrates moesin and the Longer Biotin-LRRKtide. Moesin and a shorter version of the peptide were identified as substrates in Jaleel et al. (2007, Biochem J, 405: 307-317).
(§2) b) 3 μl enzyme solution (80 nM purified recombinant 6His-Tev-LRRK2 (1326-2527) in assay buffer: 50 mM Hepes (pH 7.2), 10 mM MgCl2, 150 mM NaCl, 5% glycerol, 0.0025% triton X-100 and 1 mM DTT) is added to certain wells. 3 μl assay buffer is added to certain wells as a 100% inhibition (no enzyme) control. c) After incubation at room temperature for 30 minutes, 3 μl substrate solution (2 μM Biotin-LRRKtide peptide substrate and ATP at Km in assay buffer) is added to each well. Plates are then incubated for a further 1-2 hours at room temperature (incubation time varies depending upon rate and linearity of reaction with differing enzyme batches). d) 6 μl detection solution (50 nM Streptavidin SureLight® APC (PerkinElmer), 4 nM Eu-W1024 labelled anti-rabbit IgG antibody (PerkinElmer), 1:500 dilution (dilution determined on a batch to batch basis) of Phospho-Ezrin (Thr567)/Radixin (Thr564)/Moesin (Thr558) Polyclonal Antibody (New England Biolabs) and 60 mM EDTA in buffer: 40 mM Hepes (pH 7.2), 150 mM NaCl, 0.03% BSA) is added to each well. Plates are then incubated for a further 2 hours at room temperature before reading on a suitable plate reader (Excitation 330 nm, emission 620 nm (Eu) and 665 nm (APC)). Data is analysed using ActivityBase software (IDBS). LRRK2 AlphaScreen Desensitised Protein Substrate Assay a) 100 nl of a 1:4 serial dilution of test compound with a top final assay concentration of 30 μM is added to certain wells in a low volume 384 well black plate. 100 nl of DMSO is used in certain wells as controls. b) 3 μl enzyme solution (80 nM purified recombinant 6His-Tev-LRRK2 (1326-2527) in assay buffer: 50 mM Hepes (pH 7.2), 10 mM MgCl2, 150 mM NaCl, 5% glycerol, 0.0025% triton X-100 and 1 mM DTT) is added to certain wells. 3 μl assay buffer is added to certain wells as a 100% inhibition (no enzyme) control. c) After incubation at room temperature for 30 minutes, 3 μl substrate solution (200 nM GST-PS-Moesin (400-577) and 2 mM ATP in assay buffer) is added to each well. Plates are then incubated for 20 minutes at room temperature. d) 6 μl detection solution (1:250 dilution of AlphaLisa Protein A Acceptor beads (PerkinElmer), 1:64 dilution of AlphaLisa Gluthathione Donor beads (PerkinElmer) and 1:600 dilution (dilution determined on a batch to batch basis) of Phospho-Ezrin (Thr567)/Radixin (Thr564)/Moesin (Thr558) Polyclonal Antibody (New England Biolabs) in a buffer: 50 mM Hepes (pH 7.5), 250 mM NaCl, 60 mM EDTA, 1% PEG and 0.01% Brij 35) is added to each well. Plates are then incubated for a further 2 hours at room temperature in the dark before reading on an EnVision™ plate reader with AlphaScreen HTS turbo option module and AlphaScreen settings. Data is analysed using ActivityBase software (IDBS). Pharmacological Data
On the technique in general: Alpha assays give light when donor and acceptor beads are brought close together.

In assay [2] the target is T1, 6His-Tev-LRRK2 (1326-2527). Nature of the assay: LRRK2 peptide substrate assay. The format is biochemical. The conditions noted are these: mean pIC50 of multiple test results. Here is the method: as §1
LRRK2 Peptide Substrate Assay
a) 100 nl of a 1:4 serial dilution of test compound with a top final assay concentration of 30 μM is added to certain wells in a low volume 384 well black plate. 100 nl of DMSO is used in certain wells as controls.
as §2

Where [3] appears, read: stated as threshold, read-out: pIC50 in the LRRK2 alphascreen desensitised protein substrate assay (bounds) (converted).
Setting [4] is: stated as threshold, read-out: pIC50 in the LRRK2 peptide substrate assay (bounds) (converted).
Setting [5] is: GST-PS-Moesin (400-577) substrate, 2 mM ATP, read-out: LRRK2 alphascreen desensitized protein substrate assay (pIC50) (converted).
The mark [6] stands for this setting: Biotin-LRRKtide peptide substrate, ATP at Km, read-out: LRRK2 peptide substrate assay (pIC50) (converted).

For the molecule `O=C(Nc1ccnnc1)c1cc(Br)c(CN2CCOCC2)cc1OCc1ccccc1` [Example 1, 5-Bromo-4-(4-morpholinylmethyl)-2-[(phenylmethyl)oxy]-N-4-pyridazinylbenzamide], the IC50 in assay [1] (setting [3]) was ≤ 25100 nM; in assay [2] (setting [4]), ≤ 100 nM.

Turning to `O=C(Nc1cccnc1)c1cc(Br)c(CN2CCOCC2)cc1OCc1ccccc1` [Example 2, 5-Bromo-4-(4-morpholinylmethyl)-2-[(phenylmethyl)oxy]-N-3-pyridinylbenzamide], the IC50 is 251 nM in assay [1] (setting [5]), ≤ 316 nM in assay [1] (setting [3]), 10 nM in assay [2] (setting [6]) and ≤ 10 nM in assay [2] (setting [4]).

For `Cn1cc(-c2cc(C(=O)Nc3ccnnc3)c(OCc3ccccc3)cc2CN2CCOCC2)cn1` [Example 3, 5-(1-Methyl-1H-pyrazol-4-yl)-4-(4-morpholinylmethyl)-2-[(phenylmethyl)oxy]-N-4-pyridazinylbenzamide], the IC50 was ≤ 25100 nM in assay [1] (setting [3]) and ≤ 100 nM in assay [2] (setting [4]).

Regarding `Cn1cc(-c2cc(C(=O)Nc3cccnc3)c(OCc3ccccc3)cc2CN2CCOCC2)cn1` [Example 4, 5-(1-Methyl-1H-pyrazol-4-yl)-4-(4-morpholinylmethyl)-2-[(phenylmethyl)oxy]-N-3-pyridinylbenzamide], the IC50 in assay [1] (setting [5]) was 126 nM; in assay [1] (setting [3]), ≤ 316 nM; in assay [2] (setting [6]) it was 15.8 nM; in assay [2] (setting [4]), ≤ 100 nM.

With `Cc1cc(OCc2ccccc2)c(C(=O)Nc2ccnnc2)cc1Br` [Example 5, 5-Bromo-4-methyl-2-[(phenylmethyl)oxy]-N-4-pyridazinyl benzamide], the IC50 was ≤ 316 nM in assay [1] (setting [3]) and ≤ 10 nM in assay [2] (setting [4]).

Consider `Cc1cc(OCc2ccccc2)c(C(=O)Nc2cccnc2)cc1Br` [Example 6, 5-Bromo-4-methyl-2-[(phenylmethyl)oxy]-N-3-pyridinylbenzamide], for which the IC50 in assay [1] (setting [3]) was ≤ 316 nM; in assay [2] (setting [4]), ≤ 10 nM.

With `Cc1cc(OCc2ccccc2)c(C(=O)Nc2cccnc2)cc1-c1cnn(C)c1` [Example 7, 4-Methyl-5-(1-methyl-1H-pyrazol-4-yl)-2-[(phenylmethyl)oxy]-N-3-pyridinylbenzamide], the IC50 in assay [1] (setting [5]) was 158 nM; in assay [1] (setting [3]), ≤ 316 nM; in assay [2] (setting [6]), 15.8 nM; in assay [2] (setting [4]), ≤ 100 nM.

With `Cc1cc(OCc2ccccc2)c(C(=O)Nc2ccnnc2)cc1-c1cnn(C)c1` [Example 8, 4-Methyl-5-(1-methyl-1H-pyrazol-4-yl)-2-[(phenylmethyl)oxy]-N-4-pyridazinylbenzamide], the IC50 in assay [1] (setting [3]) is ≤ 25100 nM; in assay [2] (setting [4]), ≤ 100 nM.

In the case of `Cc1cc(C(=O)Nc2cccnc2)c(OCc2ccccc2)cc1Br` [Example 9, 4-Bromo-5-methyl-2-[(phenylmethyl)oxy]-N-3-pyridinylbenzamide], the IC50 in assay [1] (setting [5]) is 126 nM; in assay [1] (setting [3]) it was ≤ 316 nM; in assay [2] (setting [6]), 10 nM; in assay [2] (setting [4]) it was ≤ 10 nM.

For the molecule `Cc1cc(C(=O)Nc2ccnnc2)c(OCc2ccccc2)cc1Br` [Example 10, 4-Bromo-5-methyl-2-[(phenylmethyl)oxy]-N-4-pyridazinylbenzamide], the IC50 is 100 nM in assay [1] (setting [5]), ≤ 316 nM in assay [1] (setting [3]), 6.31 nM in assay [2] (setting [6]) and ≤ 10 nM in assay [2] (setting [4]).

Turning to `Cc1cc(C(=O)Nc2cccnc2)c(OCc2ccccc2)cc1-c1cnn(C)c1` [Example 11, 5-Methyl-4-(1-methyl-1H-pyrazol-4-yl)-2-[(phenylmethyl)oxy]-N-3-pyridinylbenzamide], the IC50 was 50.1 nM in assay [1] (setting [5]), ≤ 316 nM in assay [1] (setting [3]), 7.94 nM in assay [2] (setting [6]) and ≤ 10 nM in assay [2] (setting [4]).

Take `Cc1cc(C(=O)Nc2ccnnc2)c(OCc2ccccc2)cc1-c1cnn(C)c1` [Example 12, 5-Methyl-4-(1-methyl-1H-pyrazol-4-yl)-2-[(phenylmethyl)oxy]-N-4-pyridazinylbenzamide]: the IC50 in assay [1] (setting [5]) is 100 nM; in assay [1] (setting [3]), ≤ 316 nM; in assay [2] (setting [6]) it was 10 nM; in assay [2] (setting [4]) it was ≤ 10 nM.

On to `Cn1cc(-c2cc(OCc3ccc(F)cc3)c(C(=O)Nc3cccnc3)cc2CN2CCOCC2)cn1` [Example 13, 2-{[(4-Fluorophenyl)methyl]oxy}-4-(1-methyl-1H-pyrazol-4-yl)-5-(4-morpholinylmethyl)-N-3-pyridinylbenzamide], for which the IC50 was 794 nM in assay [1] (setting [5]), ≤ 25100 nM in assay [1] (setting [3]), 79.4 nM in assay [2] (setting [6]) and ≤ 100 nM in assay [2] (setting [4]).

Take `Cn1cc(-c2cc(C(=O)Nc3cccc(Cl)c3)c(OCc3ccccc3)cc2CN2CCOCC2)cn1` [Example 50, 2-(benzyloxy)-N-(3-chlorophenyl)-5-(1-methyl-1H-pyrazol-4-yl)-4-(morpholinomethyl)benzamide, Hydrochloride]: the IC50 in assay [2] (setting [4]) was ≤ 100 nM.

Regarding `Cn1cc(-c2cc(C(=O)Nc3cccc(Cl)c3)c(OCc3ccccc3)cc2CN2CCOCC2)cn1` [Example 51, 2-(benzyloxy)-N-(3-chlorophenyl)-5-(1-methyl-1H-pyrazol-4-yl)-4-(morpholinomethyl)benzamide, Maleic acid salt], in assay [2] (setting [4]), the IC50 was ≤ 100 nM.

Regarding `CN1CCN(C(=O)c2cc(OCc3ccccc3)c(C(=O)Nc3cccnc3)cc2Cl)CC1` [Example 54, 2-(benzyloxy)-5-chloro-4-(4-methylpiperazine-1-carbonyl)-N-(pyridin-3-yl)benzamide], the IC50 in assay [2] (setting [4]) was ≤ 100 nM.
